Results from US20210213041A1, “REPEAT RNA AS BIOMARKERS OF TUMOR IMMUNE RESPONSE” (The General Hospital Corporation, priority 2018, published 2021).

Test system: melanoma
Assay: Immunotherapy response of melanoma patients by standard clinical imaging criteria (CT scan change), tumors classed by HSATII RNA-ISH
Format: in vivo, human
Method: All combined RNA-ISH and IHC assays are performed as follows: Monoclonal antibodies for immune cells (T-cell subsets CD3, CD4, CD8, FOXP3; Macrophages CD68, CD163; B-cells CD20; NK cells CD16, CD56) and RNA ISH probes for repeat RNAs (HSATII, HERV-K, HERV-H, LINE1) were sequentially applied on a single histologic slide, and contrasting chromogens were used to visualize the antibody: brown (diaminobenzidine [DAB]) for immune marker and RNA: red (fast red) for repeat RNA. Paraffin-embedded sections were mounted on coated slides and were placed in an oven for 60 minutes at 60° C. The sequential double-staining protocol was performed using the Leica Bond Rx automated immunostainer. […]
As shown herein, HSATII low melanomas respond to immunotherapy including anti-PD1/PDL1 and anti-CTLA4 therapies (FIG. 5). Briefly, a cohort of 20 melanoma patients who received either anti-PD1/PDL1 or anti-CTLA4 therapy that had formalin fixed paraffin embedded (FFPE) tissue were evaluated with HSATII RNA-ISH combined with CD3 T cell IHC assay. Tumors were evaluated for HSATII RNA levels (HIGH vs LOW) and CD3 T cell infiltrates quantitated by manual counting of cells in a 400×200 micron area by a pathologist. […] Tumors were evaluated for HSATII RNA levels (HIGH vs LOW) and CD163 macrophage infiltrates quantitated by manual counting of cells in a 400×200 micron area by a pathologist.

Substance	immunotherapy response as determined by standard clinical imaging criteria (CT scan change) (HSATII LOW tumors (high CD3 T-cells))	immunotherapy response as determined by standard clinical imaging criteria (CT scan change) (HSATII HIGH tumors (low CD3 T-cells))
ipilimumab	responder	
nivolumab		non-responder
